Measured values published in patent EP1149076B1, “O-THIOCARBAMOYL-AMINOALKANOL COMPOUNDS, THEIR PHARMACEUTICALLY ACCEPTABLE SALTS AND PROCESS FOR PREPARING THE SAME” (SK Corporation, priority 1999, dated 2000).

Assays:
[1] = system: mice (CD-1 strain); test: Forced Swimming Test; type: in vivo; settings: duration of immobility, one hour prior to test, 15-minute test period
Experimental: The therapeutic use of the compounds claimed in the present invention as antidepressants has been proven by the "Forced Swimming Test", a well known pharmacological screening methods for depression and the results are shown in the following Table II.
The procedure described by Porsolt et al., (1997) was used. Test compound was administered p.o. and i.p. to mice (CD-1 strain), one hour prior to the animals being immersed in a 1500mL glass beaker (16.5cm deep, 13.0cm diameter) filled with water (20 ∼ 23°C) to about 5cm from the top. Mice were kept in the water for a period of 15 minutes and the duration of immobility observed within the 15-minute test period was recorded. A mouse was judged to be immobile if it floated motionlessly in the water making only those movements necessary to keep its head above the water.

[2] = system: mice (CD-1 strain); test: Maximal ElectroShock (MES) test; type: in vivo; settings: for ED50: Mus musculus

CNC(=S)OCCC(N)c1ccccc1 (stereo not drawn)
Inhibition (reduction,%) ([1]; i.p. (30mg/kg)): 44.2%
Inhibition (reduction,%) ([1]; p.o. (30mg/kg)): 29.2%

NC(=S)OC[C@@H](N)Cc1ccccc1
Inhibition (reduction,%) ([1]; i.p. (30mg/kg)): 51.2%

CNC(=S)OCC(CN)c1ccccc1 (stereo not drawn)
Inhibition (reduction,%) ([1]; i.p. (30mg/kg)): 30.5%
Inhibition (reduction,%) ([1]; p.o. (30mg/kg)): 25.6%

CNC(=S)OC[C@H](N)Cc1ccccc1
ED50 ([2]; ip, 1h): 20.9 mg/kg
MES (po, 30mg/kg) ([2]; po, 30mg/kg, 0.5h, mice protected / mice tested): 3/3 (0.5h)

CNC(=S)OC[C@@H](N)Cc1ccccc1
ED50 ([2]; ip, 0.5h): 41.8 mg/kg
ED50 ([2]; po, 0.5h): 152 mg/kg

NC(=S)OCC(N)Cc1ccc(Cl)cc1 (racemic)
Inhibition (reduction,%) ([1]; i.p. (30mg/kg)): 30.6%
Inhibition (reduction,%) ([1]; p.o. (30mg/kg)): 38.1%

CNC(=S)OCC(N)Cc1ccccc1F (racemic)
ED50 ([2]; ip, 1h): 24.7 mg/kg

NC(=S)OC[C@H](N)Cc1ccccc1 [[drawing] the 2nd table, row 2]
Inhibition (reduction,%) ([1]; i.p. (30mg/kg)): 41.6%

CN(C)C(=S)OC[C@H](N)Cc1ccc(Cl)c(Cl)c1 [[drawing] the 2nd table, row 12]
Inhibition (reduction,%) ([1]; i.p. (30mg/kg)): 54.9%
Inhibition (reduction,%) ([1]; p.o. (30mg/kg)): 50.8%

NC(=S)OC[C@H](N)Cc1ccccc1 [[drawing] the 3rd table, row 2]
ED50 ([2]; ip, 0.5h): 29 mg/kg
ED50 ([2]; po, 0.5h): 189 mg/kg

CN(C)C(=S)OC[C@H](N)Cc1ccc(Cl)c(Cl)c1 [[drawing] the 3rd table, row 7]
MES (ip, 30mg/kg) ([2]; ip, 30mg/kg, 4.0h, mice protected / mice tested): 1/3 (4.0h)
